Test results reported in ChEMBL document CHEMBL1201862, “PubChem BioAssay data set” (2004).
Active and inactive are the calls of the source.

Assays:
[1] = biological target: T1, Methionyl-tRNA synthetase, putative (Trypanosoma brucei brucei, UniProt Q38C91); type: functional, Trypanosoma brucei brucei strain 927/4 GUTat10.1
T1 sequence (Q38C91 whole entry): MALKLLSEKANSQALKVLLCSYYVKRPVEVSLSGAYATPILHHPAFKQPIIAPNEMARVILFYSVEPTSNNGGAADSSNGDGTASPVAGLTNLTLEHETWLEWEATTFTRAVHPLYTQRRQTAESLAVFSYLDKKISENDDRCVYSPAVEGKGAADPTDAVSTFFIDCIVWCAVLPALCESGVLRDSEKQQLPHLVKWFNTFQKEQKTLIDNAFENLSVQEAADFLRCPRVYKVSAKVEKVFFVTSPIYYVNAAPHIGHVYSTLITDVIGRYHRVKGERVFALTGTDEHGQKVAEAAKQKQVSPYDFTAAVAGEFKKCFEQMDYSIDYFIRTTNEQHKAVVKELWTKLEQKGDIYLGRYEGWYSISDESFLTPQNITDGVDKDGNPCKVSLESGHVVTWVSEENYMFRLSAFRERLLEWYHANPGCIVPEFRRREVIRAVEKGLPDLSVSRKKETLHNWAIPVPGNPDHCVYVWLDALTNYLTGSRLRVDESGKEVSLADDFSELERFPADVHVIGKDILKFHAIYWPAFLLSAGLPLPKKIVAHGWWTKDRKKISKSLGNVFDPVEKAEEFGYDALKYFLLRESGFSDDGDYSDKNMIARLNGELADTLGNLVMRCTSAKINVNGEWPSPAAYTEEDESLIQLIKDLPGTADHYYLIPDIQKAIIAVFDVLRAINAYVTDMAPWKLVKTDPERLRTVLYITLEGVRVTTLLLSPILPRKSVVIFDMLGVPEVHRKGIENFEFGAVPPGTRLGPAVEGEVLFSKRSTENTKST

[2] = biological target: T1, Methionyl-tRNA synthetase, putative; type: functional, Trypanosoma brucei brucei strain 927/4 GUTat10.1; remark: listed apart in the source
[3] = Counterscreen for inhibitors of Trypanosoma brucei methionyl tRNA synthetase (MetRS): Luminescence-based cell-based high throughput dose response assay to identify compounds that are cytotoxic to Jurkat human T lymphocyte cells.; type: functional
[4] = Late stage counterscreen for inhibitors of Trypanosoma brucei methionyl tRNA synthetase (MetRS): Luminescence-based cell-based high throughput dose response assay to identify compounds that are cytotoxic to Jurkat human T lymphocyte cells.; type: functional
cells [5] = settings: A549
cells [6] = settings: HEK293
Leucine aminopeptidase = biological target: T2, Leucine aminopeptidase (Plasmodium falciparum 3D7, UniProt Q8IL11); experiment: P. falciparum M17LAP inhibitors, primary screen, biochemical, fluorogenic H-Leu-NHMec substrate, 1536-well (AID 1619); type: functional
T2 sequence (Q8IL11 whole entry): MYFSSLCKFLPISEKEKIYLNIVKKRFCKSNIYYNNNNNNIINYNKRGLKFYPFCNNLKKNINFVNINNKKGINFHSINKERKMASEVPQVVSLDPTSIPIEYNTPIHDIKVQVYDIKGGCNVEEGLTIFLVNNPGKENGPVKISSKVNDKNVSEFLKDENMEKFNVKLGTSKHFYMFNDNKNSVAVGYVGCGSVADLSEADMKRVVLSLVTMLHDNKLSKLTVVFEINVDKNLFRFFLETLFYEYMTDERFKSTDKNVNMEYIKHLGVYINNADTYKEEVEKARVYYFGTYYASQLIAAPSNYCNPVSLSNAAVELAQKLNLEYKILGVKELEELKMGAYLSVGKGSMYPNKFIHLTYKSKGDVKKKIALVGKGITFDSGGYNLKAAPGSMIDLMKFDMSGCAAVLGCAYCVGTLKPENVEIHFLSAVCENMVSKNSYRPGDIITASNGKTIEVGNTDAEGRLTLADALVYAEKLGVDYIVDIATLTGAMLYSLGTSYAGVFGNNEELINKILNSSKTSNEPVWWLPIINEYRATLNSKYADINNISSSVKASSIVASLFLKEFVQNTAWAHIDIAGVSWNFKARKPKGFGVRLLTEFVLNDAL

[7] = viability loss in HepG2 liver cells – cell-based, ATP luminescence, cherry-pick, set 6, cytotoxicity control, dose response (AID 1053125); type: functional
[8] = DRD fibroblast viability loss – cell-based, non-viral oncogenic, luminescence, dose response (AID 1934); type: functional; settings: Homo sapiens
BJ [9] = experiment: BJ-TERT-LT-ST fibroblast viability loss – cell-based, RAS-independent, luminescence, dose response (AID 1935); type: functional; settings: Homo sapiens;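 also: BJ fibroblasts immortalized with TERT plus LT and ST oncogenes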
cells [10] = type: functional, cell-based; settings: HEK-CNG
Galanin receptor type 3 = biological target: T3, Galanin receptor type 3 (Homo sapiens, UniProt O60755); experiment: Fluorescence-based cell-based primary high throughput dose response assay to identify antagonists of the Galanin Receptor 3 (GalR3).; type: functional
T3 sequence (O60755 whole entry): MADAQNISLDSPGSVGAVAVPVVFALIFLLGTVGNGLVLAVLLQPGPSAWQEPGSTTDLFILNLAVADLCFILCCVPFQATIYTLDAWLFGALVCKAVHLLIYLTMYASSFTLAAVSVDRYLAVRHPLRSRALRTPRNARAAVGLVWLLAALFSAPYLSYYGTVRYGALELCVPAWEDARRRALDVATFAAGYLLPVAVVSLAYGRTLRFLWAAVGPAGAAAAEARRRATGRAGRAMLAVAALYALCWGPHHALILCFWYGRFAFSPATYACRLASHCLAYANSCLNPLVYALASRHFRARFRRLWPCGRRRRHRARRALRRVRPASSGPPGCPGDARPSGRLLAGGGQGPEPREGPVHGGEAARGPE

BJ [11] = experiment: BJ-TERT fibroblast viability loss – cell-based, RAS-independent, luminescence, dose response (AID 1933); type: functional; settings: Homo sapiens
BJ [12] = experiment: cells; type: functional, cell-based; settings: Homo sapiens
[13] = inhibitors of non-replicating M. tuberculosis, dose response, luciferase, dry powder (AID 651619); type: functional; settings: Mycobacterium tuberculosis
[14] = inhibitors of non-replicating M. tuberculosis, dose response, luciferase, dry powder (AID 651620); type: functional; settings: Mycobacterium tuberculosis
[15] = potency of ADAM10 substrate cleavage blockers – biochemical, QFRET, dose response (AID 743254);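 also: ADAM10 enzyme with the DM2 quenched FRET peptide as substrate; EDANS fluorescence gain as the protease cuts the substrate; inhibitor potency against ADAM10 proteolytic activity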
cells [16] = type: functional, cell-based
cells [17] = type: functional, cell-based; remark: listed apart in the source
[18] = biological target: Disintegrin and metalloproteinase domain-containing protein 17 (Homo sapiens, UniProt P78536); experiment: inhibition of ADAM17 substrate cleavage – biochemical, quenched FRET substrate, counter-screen for ADAM10 exosite inhibitor project, dose response (AID 743253)
[19] = OVCAR8 cell viability loss – plate reader, dry powder samples, PAX8 project, dose response (AID 743197); type: functional, cell-based; settings: OVCAR-8
Paired box protein Pax-8 = Paired box protein Pax-8 (Homo sapiens, UniProt Q06710); experiment: PAX8 transcriptional activity inhibition in RMG-I – RMG-I cells, luciferase, cherry-pick, dose response (AID 687027); type: functional, cell-based;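 also: luciferase reporter driven by Pax8 target thyroperoxidase promoter measured by SteadyGlo luminescence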
[20] = OVCAR-3 cell viability loss – plate reader, dry powder samples, PAX8 inhibitor project, dose response (AID 743044); type: functional, cell-based
[21] = toxicity toward immortalized ovarian surface epithelium – cell-based, plate reader, dry powder samples, cytotoxicity control for PAX8 inhibitor project, dose response (AID 743045); type: functional
[22] = IGROV1 cell killing – plate reader, dry powder samples, PAX8 inhibitor project, dose response (AID 743043); type: functional, cell-based; settings: IGROV-1
[23] = A Cell-Based Confirmatory Screen for Compounds that Inhibit VEEV, TC-83 (8).; type: functional
[24] = A Cell-Based Counter Screen testing Compounds that Inhibit VEEV TC-83, in strain KU V3526.; type: functional
[25] = A Cell-Based Confirmatory Screen for Compounds that Inhibit VEEV, TC-83 (2).; type: functional
Vero [26] = experiment: cells; type: functional; settings: Chlorocebus sabaeus
Vero [27] = experiment: cells; type: functional, cell-based; settings: Chlorocebus sabaeus
[28] = Luminescence Cell-Based Dose Retest to Confirm Inhibitors of Cancer Stem Cells. [Related pubchem assays (depositor defined):AID2717, AID2721]; type: functional, Homo sapiens; settings: Homo sapiens
Streptococcus = experiment: GAS UMAA2166 growth inhibition – luminescence, BacTiterGlo, counter-screen for streptokinase expression inhibitor project, dose response (AID 1915); type: functional, organism-based;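 also: potency for reduction of bacterial viability or growth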
INS1 = experiment: INS-1E survival protection against cytokine death – cell-based, luminescence, retest, dose response (AID 449756); type: functional; settings: Rattus norvegicus;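 also: cell death triggered by IL-1 beta plus TNF-alpha plus IFN-gamma mixture; protective hits raise ATP signal compared with cytokine alone wells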
[29] = biological target: T4, Heat shock factor protein 1 (Mus musculus, UniProt P38532); experiment: decrease of HSF1-responsive luciferase luminescence – cell-based, NIH3T3, dose retest, confirmation (AID 2382); type: functional;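 also: NIH3T3 fibroblasts with HSF1-driven luciferase reporter stressed by proteasome inhibitor MG132; luminescence from HSF1-driven luciferase expression after 8 hours of MG132 stress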
T4 sequence (P38532 whole entry): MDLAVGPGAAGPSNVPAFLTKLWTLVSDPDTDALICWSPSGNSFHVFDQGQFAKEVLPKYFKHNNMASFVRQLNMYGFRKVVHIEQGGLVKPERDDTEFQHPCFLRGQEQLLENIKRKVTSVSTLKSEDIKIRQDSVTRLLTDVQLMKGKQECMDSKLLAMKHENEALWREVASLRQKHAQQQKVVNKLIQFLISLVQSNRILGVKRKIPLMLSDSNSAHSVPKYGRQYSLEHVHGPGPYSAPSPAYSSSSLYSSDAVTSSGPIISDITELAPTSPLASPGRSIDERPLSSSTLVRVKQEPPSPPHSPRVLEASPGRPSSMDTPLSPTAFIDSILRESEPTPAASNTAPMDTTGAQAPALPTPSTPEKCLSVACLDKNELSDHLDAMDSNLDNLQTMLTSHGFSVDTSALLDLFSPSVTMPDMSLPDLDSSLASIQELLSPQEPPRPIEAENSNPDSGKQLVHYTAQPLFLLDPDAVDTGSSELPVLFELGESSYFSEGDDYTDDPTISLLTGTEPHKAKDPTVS

[30] = EF1alpha-driven Renilla reporter with control 3'UTR suppression – Clone20-Shn3RL cells, dual-Glo, cherry-pick, set 2, counter-screen for Shn3 3'UTR targeting project, dose response (AID 720724); type: functional, cell-based; settings: Dual-Go Shn3RL
[31] = reduction of Shn3 3'UTR-driven luciferase in osteoblasts – cell-based, Clone20 osteoblasts, firefly luciferase, cherry-picked, dose response (AID 624132); type: functional;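 also: firefly luciferase luminescence from reporter carrying the Shn3 3'UTR in osteoblasts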
[32] = Shn3 3'UTR reporter signal decrease – cell-based, Clone20 osteoblasts, firefly luciferase, cherry-pick, set 2, Schnurri-3 inhibitor project, dose response (AID 720490); type: functional;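 also: actives lower the luminescence signal as inhibitors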
[33] = tested on: Streptococcus sp. 'group A'; experiment: Streptococcus pyogenes SK(-)GAS viability under kanamycin – luminescence, BacTiterGlo, confirmation, counter-screen for streptokinase expression inhibitor project, dose response (AID 1900); type: functional, organism-based

Paired box protein Pax-8, sequence (Q06710 whole entry): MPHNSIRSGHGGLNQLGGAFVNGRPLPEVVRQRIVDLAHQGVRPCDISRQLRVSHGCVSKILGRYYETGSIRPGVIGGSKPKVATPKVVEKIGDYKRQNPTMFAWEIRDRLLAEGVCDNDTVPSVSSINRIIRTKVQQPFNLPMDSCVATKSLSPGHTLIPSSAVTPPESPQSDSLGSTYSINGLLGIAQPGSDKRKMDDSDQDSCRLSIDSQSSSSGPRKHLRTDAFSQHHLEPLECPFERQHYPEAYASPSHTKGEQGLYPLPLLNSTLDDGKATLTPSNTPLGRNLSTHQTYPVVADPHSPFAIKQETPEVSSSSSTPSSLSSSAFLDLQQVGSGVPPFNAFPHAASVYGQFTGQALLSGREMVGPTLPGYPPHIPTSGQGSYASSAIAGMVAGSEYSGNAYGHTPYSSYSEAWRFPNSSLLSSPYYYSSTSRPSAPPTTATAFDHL
Disintegrin and metalloproteinase domain-containing protein 17, sequence (P78536 whole entry, the tested form may be a part): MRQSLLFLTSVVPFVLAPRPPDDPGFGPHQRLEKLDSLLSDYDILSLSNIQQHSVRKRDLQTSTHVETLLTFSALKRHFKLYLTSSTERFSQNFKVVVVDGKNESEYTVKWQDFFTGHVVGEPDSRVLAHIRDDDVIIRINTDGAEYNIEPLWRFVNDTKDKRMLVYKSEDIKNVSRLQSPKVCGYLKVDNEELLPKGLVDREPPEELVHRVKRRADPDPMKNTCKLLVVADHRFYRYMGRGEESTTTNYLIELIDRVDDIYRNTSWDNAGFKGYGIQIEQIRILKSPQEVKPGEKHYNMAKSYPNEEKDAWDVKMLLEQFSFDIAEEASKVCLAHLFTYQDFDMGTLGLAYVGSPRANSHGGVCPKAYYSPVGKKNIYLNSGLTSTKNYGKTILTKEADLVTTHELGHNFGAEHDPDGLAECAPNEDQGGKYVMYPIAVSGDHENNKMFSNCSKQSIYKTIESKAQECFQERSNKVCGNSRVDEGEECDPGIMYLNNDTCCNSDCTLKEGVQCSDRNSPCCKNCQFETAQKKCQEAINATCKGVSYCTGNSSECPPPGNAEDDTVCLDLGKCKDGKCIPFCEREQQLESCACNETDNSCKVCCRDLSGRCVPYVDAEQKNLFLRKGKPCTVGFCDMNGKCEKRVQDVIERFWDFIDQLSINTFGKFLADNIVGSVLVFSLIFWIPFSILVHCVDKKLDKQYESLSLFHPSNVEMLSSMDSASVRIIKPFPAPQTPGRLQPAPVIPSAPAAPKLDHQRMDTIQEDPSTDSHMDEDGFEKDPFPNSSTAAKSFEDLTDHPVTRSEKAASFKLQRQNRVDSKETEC

Compound: CCO[C@H]1OC(C(=O)NCc2nc3ccccc3[nH]2)=C[C@@H](c2ccc(Br)cc2)[C@@H]1CCCO
- IC50 [1]: 5.73 µM (active)
- IC50 [2]: 8.41 µM (active)
- IC50 [3]: 83.3 µM (inactive)
- IC50 [4]: 57 µM (inactive)

Compound: COc1ccc(N2C(C)=CC(=Cc3sc4ccccc4[n+]3C)C=C2C)cc1
- AC50 (cells [5]): 0.315 µM (active)
- AC50 (cells [6]): 3.36 µM (active)
- IC50 (Leucine aminopeptidase): 60.3 µM (active)
- AC50 [7]: 14.3 µM (active)
- EC50 [8]: 2.06 µM (inconclusive)
- EC50 (BJ [9]): 4 µM (inconclusive)
- EC50 (cells [10]): > 29.9 µM (inactive)
- IC50 (Galanin receptor type 3): 0.246 µM (active)
- EC50 (BJ [11]): 0.359 µM (inconclusive)
- EC50 (BJ [12]): 1.38 µM (active)

Compound: COc1ccccc1-c1nnc(SCc2ccccn2)o1
- IC90 [13]: 31 µM (active)
- IC90 [14]: 31 µM (active)

Compound: COc1ccc(S(=O)(=O)N2CCC(c3cc(-c4cccc5ccccc45)[nH]n3)CC2)cc1
- IC50 [15]: > 69.5 µM (inactive)
- EC50 (cells [16]): > 350 µM (not active)
- EC50 (cells [17]): > 350 µM (not active)
- IC50 [18]: > 69.5 µM (inactive)

Compound: COc1cccc(S(=O)(=O)N2CC[C@@H]3[C@@H](CO)Nc4ccc(-c5ccccc5OC)cc4[C@@H]32)c1
- AC50 [19]: 31.1 µM (active)
- AC50 (Paired box protein Pax-8): 10.6 µM (active)
- AC50 [20]: 19.6 µM (active)
- AC50 [21]: 33 µM (active)
- AC50 [22]: 36.5 µM (active)

Compound: O=c1nc(Nc2ccc(OCc3ccccc3)cc2)sc2ncccc12
- IC50 [23]: 0.94 µM (active)
- IC50 [24]: 2.38 µM (active)
- IC50 [25]: 2.79 µM (active)
- CC50 (Vero [26]): > 25 µM (active)
- IC50 (Vero [27]): 2.86 µM (active)

Compound: COc1c(CC=C(C)C)cc(C2CC(=O)c3c(O)cc(O)cc3O2)cc1CC=C(C)C (stereo not drawn)
- AC50 [28]: 3.04 µM (active)
- EC50 (Streptococcus): 3.2 µM (active)
- AC50 (INS1): 4.52 µM (active)
- EC50 [29]: 11.8 µM (active)
- AC50 [30]: 24.6 µM (active)
- AC50 [31]: 5.42 µM (active)
- AC50 [32]: 2.82 µM (active)
- EC50 [33]: 2.47 µM (active)
